IC50 data for 7 compounds are collected here from patent US7781443B2, “Tetrahydronaphthyridine derivatives and a process for preparing the same” (Mitsubishi Tanabe Pharma Corporation, priority 2004, dated 2010).

Each structure is given as a SMILES string.

In the assay the target is T1, CETP (Homo sapiens, UniProt P11597).
T1 construct: from tissue; host or cells: plasma from a healthy volunteer (diluted to 0.64%)
T1 sequence (P11597 18-493): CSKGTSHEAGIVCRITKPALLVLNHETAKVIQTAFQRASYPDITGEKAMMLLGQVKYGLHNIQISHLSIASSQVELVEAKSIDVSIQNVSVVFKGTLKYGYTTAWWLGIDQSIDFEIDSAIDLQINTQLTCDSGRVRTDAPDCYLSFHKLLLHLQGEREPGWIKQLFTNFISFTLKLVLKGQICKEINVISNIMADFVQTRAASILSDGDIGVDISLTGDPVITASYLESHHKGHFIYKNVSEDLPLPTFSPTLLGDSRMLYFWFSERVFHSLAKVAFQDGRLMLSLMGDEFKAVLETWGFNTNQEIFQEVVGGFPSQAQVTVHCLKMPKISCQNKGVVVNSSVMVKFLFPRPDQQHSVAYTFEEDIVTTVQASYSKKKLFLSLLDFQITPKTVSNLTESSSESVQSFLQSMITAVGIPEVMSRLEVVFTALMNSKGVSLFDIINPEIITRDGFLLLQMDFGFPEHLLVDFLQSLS
Briefly: Inhibitory activity against CETP in vitro (fluorescent BODIPY-CE transfer from donor to acceptor microemulsion in diluted human plasma). The class given is biochemical. The conditions noted are these: plasma from a healthy volunteer diluted to 0.64%; preincubation with test solution 37° C. 24 hours; incubation with donor/acceptor microemulsion 37° C. 3 hours; fluorescence Ex.550 nm/Em.600 nm. The procedure: The inhibitory activity of the compounds of the present invention against CETP was tested in this experiment.
A solution of 1-Palmitoyl-2-oleoyl-sn-glycero-3-phosphocholine (3.5 mg), cholesteryl oleate (3 mg) and triolein (0.7 mg) in chloroform was mixed and lipid was air-dried under nitrogen gas to remove solvent. Dioxane (0.25 ml) was then added and the mixture was stirred for dissolution. The resultant lipid solution (0.2 ml) was slowly injected under the surface of Tris-saline-EDTA(TSE) buffer solution [10 mM Tris/HCl (pH 7.4), 0.15 M NaCl, 2 mM EDTA] (10 ml) with Hamilton syringe, while sonicating in ice-bath. After 1-hour-sonication in ice-bath, the solution was stored at 4° C.
A solution of egg PC (phosphatidylcholine) (0.33 mg) and BODIPY-CE (0.62 mg) in chloroform was mixed. After removing solvent by air-drying lipid under nitrogen gas, TSE buffer solution (3 ml) was added and the solution was sonicated in ice-bath. This solution was filtered to sterilize through 0.22 μm filter and stored at 4° C.
A test solution was prepared using dimethyl sulfoxide as a solvent. Plasma from a healthy volunteer was diluted to 0.64% with TSE buffer, and to the resultant plasma solution (187 μl) was added a test solution (3 μl) or the solvent alone followed by incubation at 37° C. for 24 hours. After addition of TSE buffer solution (10 μl) containing 5% donor microemulsion and 5% acceptor microemulsion, the mixture was incubated at 37° C. for 3 hours. Before and after the incubation, the fluorescence intensity was measured at Ex.550 nm/Em.600 nm. CETP activity was defined as the difference between the measurements obtained before incubation and after incubation. The decreasing rate of the difference in the sample was defined as the inhibition rate of CETP activity. IC50 for each sample was calculated from the inhibition rate of CETP activity.
For `CCOC(=O)N1c2ccc(OC)nc2[C@@H](N(Cc2cc(C(F)(F)F)cc(C(F)(F)F)c2)c2ncc(OCCC(=O)O)cn2)C[C@H]1CC` [Example 269, (2R,4S)-4-{[3,5-bis(trifluoromethyl)benzyl]-[5-(2-carboxyethoxy)pyrimidin-2-yl]}amino-2-ethyl-6-methoxy-3,4-dihydro-2H-[1,5]naphthyridine-1-carboxylic acid ethyl ester], half-maximal inhibition (IC50) was put at 1.9 nM.
The result for `CCOC(=O)N1c2ccc(OC)nc2[C@@H](N(Cc2cc(C(F)(F)F)cc(C(F)(F)F)c2)c2ncc(OCCS(C)(=O)=O)cn2)C[C@H]1CC` [Example 116] reads 0.11 nM; that for `CCOC(=O)N1c2ccc(N(C)C)nc2[C@@H](N(Cc2cc(C(F)(F)F)cc(C(F)(F)F)c2)c2ncc(N3CCN(C(C)=O)CC3)cn2)C[C@H]1CC` [Example 337, (2R,4S)-4-{[5-(4-acetylpiperazin-1-yl)pyrimidin-2-yl]-[3,5-bis(trifluoromethyl)-benzyl]}amino-6-dimethylamino-2-ethyl-3,4-dihydro-2H-[1,5]naphthyridine-1-carboxylic acid ethyl ester], 0.4 nM; that for `CCOC(=O)N1c2ccc(OC)nc2[C@@H](N(Cc2cc(C(F)(F)F)cc(C(F)(F)F)c2)c2ccc(N3CCC(C(=O)O)CC3)cn2)C[C@H]1CC` [Example 383], 4.6 nM.
The result for `CC[C@@H]1C[C@H](N(Cc2cc(C(F)(F)F)cc(C(F)(F)F)c2)c2ncc(N3CCOCC3)cn2)c2nc(OC)ccc2N1C(=O)OCC(C)(C)C(=O)O` [Example 409] reads 0.83 nM; that for `CCOC(=O)N1c2ccc(OC)nc2[C@@H](N(Cc2cc(C(F)(F)F)cc(C(F)(F)F)c2)c2ncc(N3CCOCC3)cn2)C[C@H]1CC` [Example 22], 0.39 nM.
As to `CCC1CC(N(Cc2cc(C(F)(F)F)cc(C(F)(F)F)c2)c2ncc(CCC(=O)O)cn2)c2nc(OC)ccc2N1C(=O)OCC(F)(F)F` (stereo not shown) [Example 356], the IC50 (commonly the concentration that inhibits the measured activity by half) was 0.98 nM.
